# Patent publication US8034574B2, “Screening method for prokinetic agent” (Astellas Pharma Inc., priority 2006, dated 2011)
# “Also recorded” adds a separate entry of the source. Where a name gives a salt, the structure may show the parent alone.
# Columns and labels:
# [1] = molecular target: T1, human TRPA1 (polypeptide of SEQ ID NO:2) (Homo sapiens, UniProt O75762, K186N/R3C/R58T); test: TRPA1 inhibitor screening by FLIPR, calcium inflow after addition of cinnamic aldehyde; type: cell-based; conditions: read-out: inhibitory activity on the polypeptide of SEQ ID NO:2 in terms of IC50
# T1 construct: expressed in transfected cells; host or cells: CHO-K1 cells, transient transfection of the pcDNA3.1(+) human TRPA1 vector
# Description: To measure the changes in intracellular calcium concentration by FLIPR, the following pre-treatment was performed. First, an assay buffer for adding the fluorescent dye Fluo3-AM (DOJIN) to the cells, or for washing the cells just before performing the FLIPR assay, was prepared. To a solution prepared by adding 20 ml of 1M HEPES (pH 7.4) (Invitrogen) to 1000 ml of HBSS (Invitrogen) (hereinafter, HBSS/HEPES solution), 10 ml of a solution prepared by dissolving 710 mg of probenecid (Sigma) in 5 ml of 1N NaOH and then adding 5 ml of the HBSS/HEPES solution, was added and mixed, and this solution was used as the assay buffer. […] After this pretreatment was performed, changes in intracellular calcium concentration after addition of the various test samples were measured with the FLIPR.
# Compounds that inhibit a polypeptide consisting of the amino acid sequence shown by SEQ ID NO:2 (inhibitor) were screened for. Inhibitory activity was measured by performing detection of calcium inflow in the cells using a calcium-sensitive fluorescent reagent; specifically, the method described in Example 3 was used with a modification. […]
# RIN14B cells [2] = test: Channel activity in RIN14B cells using calcium-sensitive fluorescent reagent (FLIPR); type: cell-based, rat; conditions: for elevation of fluorescence intensity (calcium inflow) in RIN14B cells: Fluo3-AM
# Description: RIN14B cells (5×10^4 cells), wherein the expression of TRPA1 was confirmed in Example 10, were incubated in the presence of a calcium-sensitive fluorescent reagent (Fluo3-AM; DOJINDO) at 37° C. for 1 hour to thereby incorporate the calcium-sensitive fluorescent reagent in the cells, after which the cells were washed with physiological saline to remove the calcium-sensitive fluorescent reagent that had not been incorporated in the cells. To the cells obtained, physiological saline supplemented with allyl isothiocyanate, cinnamic aldehyde, or acrolein was added; the fluorescence emitted by the cells was measured over time. The above-described measurements were performed using an automated fluorescence detection apparatus (FLIPR; Molecular Device). […] Ruthenium Red was added concurrently and a measurement was performed to determine whether or not calcium inflow in the cells was be inhibited.
# RIN14B cells [3] = test: Serotonin secretion from RIN14B cells (immunoassay); type: cell-based, rat; conditions: for serotonin secretion from RIN14B cells: 20 minutes culture
# Description: After RIN14B cells in culture in a Petri dish were detached using a PBS containing 1 mM EDTA, they were sown to a 96-well plate and cultured for 2 days. The medium used was RPMI1640 (Invitrogen Japan K.K.) supplemented with 10% fetal bovine serum (ICN), 100 U/ml penicillin, and 100 μg/ml streptomycin. After the cells were once washed with Hanks' Balanced Salt Solutions (HBSS, Invitrogen) supplemented with 0.1% BSA and 10 μM fluoxetine (TOCRIS), each TRPA1 activator, previously diluted/prepared with the above-described HBSS, was added, and the RIN14B cells were cultured at 37° C. in the presence of 5% CO2 for 20 minutes. After the cultivation, the cell supernatant was recovered, and stored under freezing. The serotonin content in the supernatant was measured using a commercially available serotonin immunoassay kit (Beckman).
# guinea pig ileum [4] = test: Isolated guinea pig gut constriction (Magnus, ileum); conditions: for EC50: Cavia porcellus, read-out: EC50(μM) †; for Action: Magnus (guinea pig ileum); for suppression of contraction upon stimulation with acrolein by serotonin receptor antagonists: acrolein 300 μM, pizotifen maleate 10 μM, ramosetron hydrochloride 0.3 μM, vs vehicle
# Description: Guinea pigs (Hartley strain, male, weighing 300-400 g), under ether anesthesia, were exsanguinated to death by cutting the carotid artery. The ileum was extirpated, about 15-cm portions at both ends were removed, a section 1.5 cm long was cut out from the remaining portion, and incisions were made longitudinally parallelly in the gut to prepare a tabular specimen. This specimen was sandwiched with serrefine at both ends, and suspended with a thread in a Magnus chamber containing 10 ml of a 37° C. Krebs solution (118 mM NaCl, 4.7 mM KCl, 2.5 mM CaCl2, 1.2 mM MgSO4, 1.2 mM KH2PO4, 11 mM D-glucose, 20 mM NaHCO3) aerated with 95% O2-5% CO2 mixed gas. A 1-g load was applied to the specimen, buffers were exchanged at 15-minute intervals, and the specimen was allowed to stand for about 60 minutes to stabilize its tension. Changes in the tension in response to agonist stimulation were measured isometrically, and recorded on a recorder. Acetylcholine, 10^−5 M, was administered to induce contraction of the ileum specimen; after the contraction maximized, the bath was washed three times to purge out the acetylcholine. This operation was repeated at 10-minute intervals, and after the induced contraction stabilized two consecutive times, each test substance was administered. By comparing the contractile forces produced by acetylcholine and the test substance, the effect of the test substance was evaluated. One specimen was investigated only at one concentration of the test substance. […] From the results above, it was shown that the TRPA1 activator induced gut contraction.
# The serotonin receptor antagonists used were pizotifen maleate (10 μM), a 5-HT1,2 receptor antagonist, ketanserin tartrate (0.1 μM), a 5-HT2 receptor antagonist, ramosetron hydrochloride (0.3 μM), a 5-HT3 receptor antagonist, and GR113808 (0.3 μM), a 5-HT4 receptor antagonist.
# The inhibitory actions of various serotonin receptor antagonists on contraction upon stimulation with acrolein (300 μM) were investigated in the same manner. […] From the results above, it was shown that serotonin was released upon stimulation with acrolein to induce contraction via serotonin receptors such as 5-HT1 receptor and 5-HT3 receptor.
# [5] = molecular target: T1, human TRPA1 (polypeptide of SEQ ID NO:2); test: Intracellular calcium by FLIPR in CHO-K1 cells expressing human TRPA1 (activator screening); type: cell-based
# Description: To detect the TRPA1 channel activity of a polypeptide consisting of the amino acid sequence shown by SEQ ID NO:2, the expression vector obtained in Example 1 above was transfected to animal cells, whereby the aforementioned protein was expressed.
# Various test samples were added to CHO-K1 cells forced to is transiently express TRPA1 by the transfection operation of Example 2 above, and the resulting changes in intracellular calcium concentration were measured using FLIPR (Molecular Device).
# To measure the changes in intracellular calcium concentration by FLIPR, the following pre-treatment was performed. First, an assay buffer for adding the fluorescent dye Fluo3-AM (DOJIN) to the cells, or for washing the cells just before performing the FLIPR assay, was prepared. To a solution prepared by adding 20 ml of 1M HEPES (pH 7.4) (Invitrogen) to 1000 ml of HBSS (Invitrogen) (hereinafter, HBSS/HEPES solution), 10 ml of a solution prepared by dissolving 710 mg of probenecid (Sigma) in 5 ml of 1N NaOH and then adding 5 ml of the HBSS/HEPES solution, was added and mixed, and this solution was used as the assay buffer. Next, 50 μg of Fluo3-AM was dissolved in 22 μl of DMSO (DOJIN), and an equal volume of 20% pluronic acid (Molecular Probes) was added and mixed, after which this mixture was added to 10.6 ml of the assay buffer supplemented with 105 μl of fetal bovine serum, whereby a fluorescent dye solution was prepared. […] After this pretreatment was performed, changes in intracellular calcium concentration after addition of the various test samples were measured with the FLIPR.
# Compounds that activate a polypeptide consisting of the amino acid sequence shown by SEQ ID NO:2 (activators) were screened for. As an index of activation, calcium inflow in the cells was detected using a calcium-sensitive fluorescent reagent; specifically, the method described in Example 3 was used.
# [6] = system: CHO-K1 cells not expressing the polypeptide shown by SEQ ID NO:2; test: Intracellular calcium by FLIPR in negative control CHO-K1 cells; type: cell-based; conditions: CHO-K1 cells not expressing TRPA1
# rat EC cells = test: Serotonin secretion from rat small intestine EC cells; type: cell-based; conditions: 45 minutes culture
# Description: A Wistar rat (male, 8-week-old) was decapitated and exsanguinated, after which it was dissected and laparotomized with scissors, and the small intestine was extirpated. The inside of the lumen of the extirpated small intestine was washed with physiological saline, and about 20 mL of Buffer A (70 mM NaCl, 5 mM KCl, 20 mM NaHCO3, 0.5 mM NaH2PO4, 50 mM HEPES (pH 7.2), 11 mM glucose, 3 mM EDTA, 0.5% BSA, 0.05 mM dithiothreitol, 1 mg/mL N-acetyl-L-cysteine) was injected, after which both ends were closed, and the small intestine was allowed to stand in 37° C. incubated HBSS for 10 minutes. Thereafter, the Buffer A in the lumen of the small intestine was discarded, about 20 mL of Buffer A was injected again, and the small intestine was allowed to stand in 37° C. incubated HBSS for 10 minutes. Again, the Buffer A in the lumen of the small intestine was discarded, fresh Buffer A was injected, and the small intestine was allowed to stand in 37° C. incubated HBSS for 20 minutes, after which the lumen content was recovered. […]
# Serotonin secretion activity in EC cells prepared by the method described in Example 9-(3) was measured by a method modified from the method of Example 14 above. […]
# The serotonin content in the supernatant was measured using a commercially available serotonin immunoassay kit (Beckman). […]
# guinea pig ileum [7] = test: Isolated guinea pig gut constriction (Magnus, ileum); conditions: allyl isothiocyanate 300 μM; pizotifen maleate 10 μM, ramosetron hydrochloride 0.3 μM; vs vehicle
# T1 sequence (O75762 whole entry R3C/R58T/K186N): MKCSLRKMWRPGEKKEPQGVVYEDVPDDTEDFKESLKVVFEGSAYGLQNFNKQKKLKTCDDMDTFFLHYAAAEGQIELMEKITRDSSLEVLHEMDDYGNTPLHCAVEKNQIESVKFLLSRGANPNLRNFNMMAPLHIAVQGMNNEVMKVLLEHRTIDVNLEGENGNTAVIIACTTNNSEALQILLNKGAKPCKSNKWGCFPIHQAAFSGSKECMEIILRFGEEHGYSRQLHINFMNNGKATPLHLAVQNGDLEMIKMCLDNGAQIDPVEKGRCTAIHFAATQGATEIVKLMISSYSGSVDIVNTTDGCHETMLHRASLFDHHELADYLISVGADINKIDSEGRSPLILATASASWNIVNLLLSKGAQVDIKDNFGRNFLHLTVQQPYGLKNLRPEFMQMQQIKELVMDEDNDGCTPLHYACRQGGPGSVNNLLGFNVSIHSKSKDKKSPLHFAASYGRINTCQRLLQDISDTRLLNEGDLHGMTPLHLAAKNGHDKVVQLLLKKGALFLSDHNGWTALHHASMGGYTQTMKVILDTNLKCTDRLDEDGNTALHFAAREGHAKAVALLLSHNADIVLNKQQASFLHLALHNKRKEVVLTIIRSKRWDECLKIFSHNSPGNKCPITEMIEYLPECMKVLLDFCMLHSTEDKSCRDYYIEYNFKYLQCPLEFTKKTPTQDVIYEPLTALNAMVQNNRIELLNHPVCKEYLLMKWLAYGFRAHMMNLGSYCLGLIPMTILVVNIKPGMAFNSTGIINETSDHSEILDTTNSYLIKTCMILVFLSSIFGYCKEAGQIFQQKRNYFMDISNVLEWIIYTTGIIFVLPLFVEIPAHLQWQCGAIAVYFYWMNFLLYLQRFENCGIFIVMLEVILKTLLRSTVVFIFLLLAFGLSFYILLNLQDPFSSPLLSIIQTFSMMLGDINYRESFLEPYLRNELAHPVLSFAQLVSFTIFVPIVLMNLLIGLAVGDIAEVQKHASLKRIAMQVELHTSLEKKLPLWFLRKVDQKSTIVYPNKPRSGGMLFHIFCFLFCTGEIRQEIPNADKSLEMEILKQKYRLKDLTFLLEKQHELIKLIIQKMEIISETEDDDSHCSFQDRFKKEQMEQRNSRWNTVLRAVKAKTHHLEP
molecule,measurement,setting,value
N.N.N.N.N.N.N.N.N.N.N.N.N.N.[Cl-].[Cl-].[Cl-].[Cl-].[Cl-].[Cl-].[O-2].[O-2].[Ru+3].[Ru+3].[Ru+4] [Ruthenium Red],IC50,[1],2.2 µM
same,inhibition of activation by allyl isothiocyanate,"RIN14B cells [2]; 30 μM Ruthenium Red, RIN14B cells",90.9%
same,inhibition of activator-induced elevation of fluorescence intensity,"RIN14B cells [2]; added concurrently with allyl isothiocyanate, cinnamic aldehyde or acrolein",the elevation of fluorescence intensity was inhibited
same,inhibition of acrolein-induced serotonin secretion,"RIN14B cells [3]; 30 μM Ruthenium Red, acrolein 30 μM",73.0%
same,suppression of cinnamic aldehyde-induced serotonin secretion,"RIN14B cells [3]; Ruthenium Red 30 μM, cinnamic aldehyde 30 μM",completely suppressed
same,suppression of contraction upon stimulation with allyl isothiocyanate by TRPA1 inhibitor,"guinea pig ileum [4]; Ruthenium Red 30 μM for 15 minutes, allyl isothiocyanate 300 μM, vs vehicle-applied specimen",about 84%
C=CC=O [acrolein],EC50,[5],7 µM
same,change in intracellular calcium concentration,"[5]; CHO-K1 cells expressing human TRPA1, FLIPR, Fluo3-AM",responded specifically (elevation of intracellular calcium concentration)
same,elevation of fluorescence intensity in negative control cells,[6],none of these compounds produced an elevation of fluorescence intensity
same,elevation of fluorescence intensity (calcium inflow) in RIN14B cells,RIN14B cells [2]; RIN14B cells,an elevation of fluorescence intensity was detected
same,serotonin secretion from RIN14B cells,RIN14B cells [3],serotonin secretion was promoted; also recorded: concentration-dependently promoted the release of serotonin
same,EC50,guinea pig ileum [4],70.3 µM
same,Action,guinea pig ileum [4],Contraction
same,concentration at which constrictive action was observed,"guinea pig ileum [4]; tested at 10, 30, 100, 300 μM",≥ 10 µM
O=C/C=C/c1ccccc1 [cinnamic aldehyde],elevation of fluorescence intensity in negative control cells,[6],none of these compounds produced an elevation of fluorescence intensity
same,elevation of fluorescence intensity (calcium inflow) in RIN14B cells,RIN14B cells [2]; RIN14B cells,an elevation of fluorescence intensity was detected
same,serotonin secretion from RIN14B cells,RIN14B cells [3],serotonin secretion was promoted; also recorded: concentration-dependently promoted the release of serotonin
same,serotonin secretion from rat EC cells,rat EC cells,significant serotonin secretion promoting activity was observed; also recorded: promoted the release of serotonin from the EC cells
same,EC50,guinea pig ileum [4],88.3 µM
same,Action,guinea pig ileum [4],Contraction
Cn1cc(C(=O)[C@@H]2CCc3nc[nH]c3C2)c2ccccc21 [ramosetron hydrochloride],suppression of contraction upon stimulation with acrolein by serotonin receptor antagonists,guinea pig ileum [4],about 84%
same,suppression of contraction upon stimulation with allyl isothiocyanate by serotonin receptor antagonists,guinea pig ileum [7],about 74%
pizotifen maleate,suppression of contraction upon stimulation with acrolein by serotonin receptor antagonists,guinea pig ileum [4],about 74%
same,suppression of contraction upon stimulation with allyl isothiocyanate by serotonin receptor antagonists,guinea pig ileum [7],about 44%
